The record followed here is publication PMC2582943 (Antiviral Research, 2008).

Each structure is given as a SMILES string. “And” between values parts separate entries of the source, which are not always exact repeats. Equal entries are not always repeated. Structures can show the parent of a compound that is named as a salt. Where two headings read alike, the source gives them in different places. Peptide text beside a SMILES is read from it.

In test [1] the test system is SARS-CoV (strain Urbani). The test is described as follows: microbe, parasite or virus in culture. Type of test: cell-based.
Test [2] concerns SARS-CoV (strain Urbani). Nature of the test: microbe, parasite or virus in culture. Type of test: cell-based. This is another data set of the same source.
Another test relates to Vero 76 cells. Nature of the test: cells. Type of test: cell-based, African green monkey.
Test [3] concerns SARS-CoV Frankfurt-1 strain. The test is described as follows: microbe, parasite or virus in culture. Type of test: cell-based.
Test [4] concerns SARS-CoV CHUK-W1 strain. Nature of the test: microbe, parasite or virus in culture. Type of test: cell-based.
Test [5] relates to SARS-CoV Toronto-2 strain. Nature of the test: microbe, parasite or virus in culture. It is filed as cell-based.
In test [6] the test system is SARS-CoV Frankfurt-1 strain. The test is described as follows: microbe, parasite or virus in culture. It is filed as cell-based. The source holds these as a separate data set.
Test [7] deals with SARS-CoV CHUK-W1 strain. The test is described as follows: microbe, parasite or virus in culture. Type of test: cell-based. This is another data set of the same source.
Test [8] concerns SARS-CoV Toronto-2 strain. Nature of the test: microbe, parasite or virus in culture. Type of test: cell-based. This is another data set of the same source.
Setting [9] is: read-out: Neutral red uptake assay EC50.
Setting [10] is: read-out: Virus yield reduction assay EC90.
Where [11] appears, read: read-out: Neutral red uptake assay IC50.
Where [12] appears, read: read-out: Virus yield reduction assay IC50.
Setting [13] is: read-out: Neutral red uptake assay EC50 ± S.D.
[14] abbreviates: read-out: VYR assay EC90 ± S.D.
The mark [15] stands for this setting: read-out: Neutral red uptake assay IC50 ± S.D.
Where [16] appears, read: Severe acute respiratory syndrome coronavirus, Vero 76, read-out: Neutral red uptake assay EC50.
Setting [17] is: Severe acute respiratory syndrome coronavirus, Vero 76, read-out: Neutral red uptake assay EC50 ± S.D.
Where [18] appears, read: Severe acute respiratory syndrome coronavirus, Vero 76, read-out: VYR assay EC90 ± S.D.
Setting [19] is: Severe acute respiratory syndrome coronavirus, Vero 76, read-out: Virus yield reduction assay EC90.
The mark [20] stands for this setting: Chlorocebus sabaeus, Vero 76, read-out: Neutral red uptake assay IC50 ± S.D.
Where [21] appears, read: Chlorocebus sabaeus, Vero 76, read-out: Virus yield reduction assay IC50.
The mark [22] stands for this setting: Chlorocebus sabaeus, Vero 76, read-out: Neutral red uptake assay IC50.

Regarding `OCCCN1c2ccccc2Sc2ccc(Cl)cc21` [2-Chloro-10-(3-chloropropanol)-10H-phenothiazine], in the test on SARS-CoV (strain Urbani) [1], the “Inhibition of virus replication in vitro (in words)” value is “essentially inactive” and the “Neutral red uptake assay SI” value is recorded as less than 1. Moreover, the concentration for a half-maximal effect (EC50) (as a rule, the concentration at which the effect is half-maximal) in the test on SARS-CoV (strain Urbani) [1] (setting [9]) worked out at 23 ± 11 µM. Moreover, the “Virus yield reduction assay SI” value in the test on SARS-CoV (strain Urbani) [2] was less than 1. In the test with SARS-CoV (strain Urbani) [2] (setting [10]), the 90% effect concentration (EC90) – broadly, the concentration needed for an effect of 90% – is 27 ± 16.8 µM. The IC50 (usually the point on the concentration scale where inhibition reaches its midpoint) in the test with Vero 76 cells (setting [11]) amounted to 20.8 ± 8.1 µM. For the same compound, the IC50 in the test with Vero 76 cells (setting [12]) was determined as 20.8 ± 8.1 µM.
With `CN1CCCC1CN1c2ccccc2Sc2ccccc21.Cl` (stereo not shown) [10-(1-Methyl-2-pyrrolidinymethyl)-phenothiazine·HCl], the EC50 was 24.3 ± 7.4 µM in test [3] (setting [13]), 19 ± 2.6 µM with SARS-CoV CHUK-W1 strain [4] (setting [13]) and 28.5 ± 8.1 µM in test [5] (setting [13]). Further, the EC90 in the test with SARS-CoV (strain Urbani) [2] (setting [14]) was found to be 28.3 ± 12.9 µM; in the test on SARS-CoV (strain Urbani) [2] (setting [10]), 16.9 ± 9.7 µM; in [6] (setting [14]), 23.7 ± 6 µM; in the test on SARS-CoV CHUK-W1 strain [7] (setting [14]), 31.3 ± 14.2 µM; in test [8] (setting [14]) it was 41.7 ± 4 µM. For the same compound, the IC50 in the test on Vero 76 cells (setting [11]) was 39.9 ± 0.2 µM; in the test on Vero 76 cells (setting [15]), 39.7 µM and 32.3 µM and 48 µM and 42.3 µM; with Vero 76 cells (setting [12]), 39.9 ± 0.2 µM.
For the compound `CC(=O)c1ccc2c(c1)N(CCCN1CCN(CCO)CC1)c1ccccc1S2` [Acetophenazine maleate], the 50% effective concentration (EC50) with SARS-CoV (strain Urbani) [1] (setting [16]) came out at 6.6 ± 3.3 µM; in the test on SARS-CoV (strain Urbani) [1] (setting [17]), 8.1 ± 1.4 µM; in the test with SARS-CoV CHUK-W1 strain [4] (setting [17]) it was 9.6 ± 7.6 µM; in [5] (setting [17]), 11.5 ± 3.7 µM. Moreover, the 90% effect concentration (EC90) in the test on SARS-CoV (strain Urbani) [2] (setting [18]) is 12.3 ± 2.1 µM; with SARS-CoV (strain Urbani) [2] (setting [19]), 10 ± 5 µM; in test [6] (setting [18]), 10 ± 5.2 µM; in the test on SARS-CoV CHUK-W1 strain [7] (setting [18]), 11.2 ± 3.2 µM; in [8] (setting [18]) it was 13 µM. The IC50 with Vero 76 cells (setting [20]) was 14.3 ± 6.4 µM; with Vero 76 cells (setting [21]), 13.2 ± 1.6 µM; with Vero 76 cells (setting [15]), 18 µM and 15.5 µM and 13.7 µM.
As to `CC(C)C[C@H](NC(=O)OCc1ccccc1)C(=O)N[C@@H](CC(C)C)C(=O)N[C@@H](Cc1ccc(O)cc1)C(=O)CF` [Calpain Inhibitor IV] (HELM PEPTIDE1{[O=C(OCc1ccccc1)[*:2]].L.L.Y.[FC[*:1]]}$$$$V2.0), the “Inhibition of virus replication in vitro (in words)” value with SARS-CoV (strain Urbani) [1] was “inhibited virus replication as expected”. Besides, the entries for the “Neutral red uptake assay SI” value (in the test with SARS-CoV (strain Urbani) [1]; in test [3]; in test [5]) were 9.4, 9.5 and 8.3, respectively. The EC50 in the test on SARS-CoV (strain Urbani) [1] (setting [9]) was determined as 2.6 µM; in the test with SARS-CoV (strain Urbani) [1] (setting [13]), 2.6 ± 0.5 µM; in [3] (setting [13]), 4.6 ± 2.1 µM; with SARS-CoV CHUK-W1 strain [4] (setting [13]), 2.6 ± 1.4 µM; in test [5] (setting [13]), 5.4 ± 1.4 µM. In addition, the “Virus yield reduction assay SI” value in the test on SARS-CoV (strain Urbani) [2] is 3.3. For the same compound, the EC90 is 7.2 ± 0.9 µM with SARS-CoV (strain Urbani) [2] (setting [14]); 7.2 µM in the test on SARS-CoV (strain Urbani) [2] (setting [10]); 6.5 ± 3.6 µM in [6] (setting [14]); 6.5 ± 3.6 µM in the test on SARS-CoV CHUK-W1 strain [7] (setting [14]); 9.6 ± 3.1 µM in test [8] (setting [14]). The IC50 with Vero 76 cells (setting [11]) was 24.7 ± 7 µM; in the test on Vero 76 cells (setting [15]), 24.7 µM and 44 µM and 30 µM and 45 µM; in the test with Vero 76 cells (setting [12]), 33 ± 4.1 µM.
On to `CN(C)CC/C=C1/c2ccccc2Sc2ccc(Cl)cc21` [Chlorprothixene], for which the “Neutral red uptake assay SI” value was 1.9 and 1.4 in the test with SARS-CoV (strain Urbani) [1]; 1.2 in [3]; 1.5 in the test on SARS-CoV CHUK-W1 strain [4]; 1.2 in test [5]. The EC50 in the test with SARS-CoV (strain Urbani) [1] (setting [16]) was 9.5 ± 5.7 µM; in the test on SARS-CoV (strain Urbani) [1] (setting [17]) it was 12 ± 3.5 µM; in [3] (setting [17]), 11.1 ± 3.4 µM; with SARS-CoV CHUK-W1 strain [4] (setting [17]), 12.6 ± 6.5 µM; in [5] (setting [17]), 12.9 ± 3.6 µM. Further, in the test with SARS-CoV (strain Urbani) [2], the “Virus yield reduction assay SI” value stood at 1.8. For the same compound, the EC90 is 10.5 ± 5.2 µM in the test on SARS-CoV (strain Urbani) [2] (setting [18]); 10.4 ± 4.2 µM in the test with SARS-CoV (strain Urbani) [2] (setting [19]); 12.3 ± 0.6 µM in test [6] (setting [18]); 12.1 ± 4.2 µM with SARS-CoV CHUK-W1 strain [7] (setting [18]); 13 ± 1 µM in test [8] (setting [18]). Besides, the 50% inhibitory concentration (IC50) is 13 ± 2 µM with Vero 76 cells (setting [20]); 18.3 ± 3.4 µM with Vero 76 cells (setting [21]); 18.5 µM and 15.8 µM and 16.7 µM in the test on Vero 76 cells (setting [15]).
Take `CCN(CC)C(C)CN1c2ccccc2Sc2ccccc21` (stereo not shown) [Ethopropazine]: the “Neutral red uptake assay SI” value with SARS-CoV (strain Urbani) [1] is given as 2.0. Besides, the EC50 in the test with SARS-CoV (strain Urbani) [1] (setting [16]) was 30.5 ± 27.5 µM. Moreover, the “Virus yield reduction assay SI” value in the test on SARS-CoV (strain Urbani) [2] came out at 1.5. Also, the EC90 in the test with SARS-CoV (strain Urbani) [2] (setting [19]) amounted to 42 µM. The IC50 with Vero 76 cells (setting [22]) and in the test with Vero 76 cells (setting [21]) was 61.3 ± 34.7 µM throughout.
For `COc1ccc2c(c1)N(C[C@H](C)CN(C)C)c1ccccc1S2` [Methotrimeprazine], in the test with SARS-CoV (strain Urbani) [1], the “Neutral red uptake assay SI” value came to 1.4. For the same compound, in the test with SARS-CoV (strain Urbani) [1] (setting [16]), the EC50 was 19 ± 8.1 µM. In addition, the “Virus yield reduction assay SI” value in the test with SARS-CoV (strain Urbani) [2] turned out to be 1.7. The EC90 in the test with SARS-CoV (strain Urbani) [2] (setting [19]) was found to be 12.3 ± 1.7 µM. Also, the IC50 is 26 ± 10.8 µM in the test with Vero 76 cells (setting [22]) and 21 ± 5.4 µM in the test on Vero 76 cells (setting [21]).
Take `OCCN1CCN(CCCN2c3ccccc3Sc3ccc(Cl)cc32)CC1` [Perphenazine]: the “Neutral red uptake assay SI” value in the test with SARS-CoV (strain Urbani) [1] is 1.6. Further, the EC50 in the test on SARS-CoV (strain Urbani) [1] (setting [9]) amounted to 9.7 ± 1.2 µM. In the test on SARS-CoV (strain Urbani) [2], the “Virus yield reduction assay SI” value came out at 1.9. In addition, in the test on Vero 76 cells (setting [21]), the IC50 came to 15.8 ± 3.4 µM.
